Experimental data reported in patent publication US20210369691A1, “METHODS AND COMPOSITIONS FOR IMPROVING BONE MARROW HEMATOPOIETIC FUNCTIONS” (Sun Yat-Sen University, priority 2018, published 2021).

Tests used:
white blood cells [1] = assay: White blood cell recovery in peripheral blood after X-ray radiation; assay type: in vivo, mice; conditions: after X-ray 450 cGy; ABC294640 10 mg/kg i.p. every other day; days 0, 1, 7, 14; vs solvent control; FIG. 7
Method: (§1) Preparation of SphK2 inhibitors was as described in Example 4. Twelve 8-week-old C57 mice purchased from Laboratory Animal Center, Sun Yat-sen University were selected and divided evenly into two groups. The mice were treated with X-ray radiation at a dose of 450 cGy. The injection of the inhibitor ABC294640 and the solvent control solution was as described in Example 4. Intraperitoneal injection of the inhibitor or the solvent control solution started from the day after the X-ray radiation, followed by injections once every other day, at a dose of 10 mg/kg, until the end of the experiment. Periphery blood (PB) of each mouse was separately collected to determine white blood cell (WBC) counts 0, 1, 7 and 14 days after X-ray radiation. T-test analysis was carried out using Graphpad6.0, and differences were considered statistically significant when P<0.05.

hematopoietic stem cells [2] = assay: Hematopoietic stem cell number after bone marrow transplantation; assay type: in vivo, mice; conditions: 35 days after bone marrow transplantation (900 cGy); ABC294640 10 mg/kg i.p. every other day; **P<0.01; FIG. 10
Method: Twenty-five 8-week-old C57 mice (purchased from Laboratory Animal Center, Sun Yat-sen University) were selected and kept in a specific pathogen free (SPF) environment. 5 mice were randomly selected and sacrificed by cervical dislocation. Femurs and tibias were taken and the bone marrow was obtained from the bone marrow cavity with an 1 ml syringe. Bone marrow was dispersed to form a single cell suspension and lysed with red blood cell lysis buffer for 2 min to remove red blood cells, followed by filtering through a 70 μm filter screen to obtain a single cell suspension. The other 20 mice were treated with X-ray radiation at a dose of 900 cGy, and were injected with 400,000 of the prepared bone marrow single cell suspension via tail vein, respectively. Then, the recipient mice were divided evenly into 2 groups, and mice of the ABC294640 treatment group were subjected to intraperitoneal injection of ABC294640 every other day. Mice in the control group was injected with a solvent solution control (1:1 of physiological saline: PEG400) solution. […] Statistical quantification was performed to determine the number of hematopoietic stem cells using the molecular marker system Lin-Sca-1+c-Kit+CD150+CD48− in combination with flow cytometry. […]

platelets = assay: Platelet recovery in peripheral blood after X-ray radiation; assay type: in vivo, mice; conditions: after X-ray 450 cGy; ABC294640 10 mg/kg i.p. every other day; days 0, 1, 7, 14; vs solvent control; **P<0.01; FIG. 8
Method: as §1
The experiment was conducted as described in Example 7. Periphery blood (PB) of each mouse was separately collected to determine platelets (PLT) counts 0, 1, 7 and 14 days after X-ray radiation. T-test analysis was carried out using Graphpad6.0, and differences were considered statistically significant when P<0.05.

white blood cells [3] = assay: White blood cell recovery in peripheral blood after 5FU; assay type: in vivo, mice; conditions: after 5FU 150 mg/kg once; ABC294640 10 mg/kg every other day; days 0, 1, 5, 11; vs solvent control; FIG. 5
Method: Preparation of the SphK2 inhibitor was as described in Example 4. Twelve 8-week-old C57 mice purchased from Laboratory Animal Center, Sun Yat-sen University were selected and divided evenly into two groups. The mice were intraperitoneally injected with 5FU at a dose of 150 mg/kg once. The injection of the inhibitor ABC294640 and the solvent control solution was as described in Example 4, which started from the day after 5-fluorouracil injection, followed by injections once every other day, at a dose of 10 mg/kg, until the end of the experiment. Periphery blood (PB) of each mouse was separately collected to determine white blood cell (WBC) counts 0, 1, 5 and 11 days after 5-FU administration. T-test analysis was carried out using Graphpad6.0, and differences were considered statistically significant when P<0.05.

hematopoietic stem cells [4] = assay: Hematopoietic stem cell number and cell cycle in uninjured mice after ABC294640 treatment; assay type: in vivo; conditions: vs solvent control
From the text: FIG. 27. illustrates the absolute number of HSPCs (LT-HSC, ST-HSC, MPP and CD150HSC) in the bone marrow (a) and cell cycle analysis of CD150 HSCs (b) in bone marrow from C57BL/6J mice after ABC294640 or solvent control treatment (n=5 mice). Data represent mean±s.d. Two-tailed Student's t-tests were used to assess statistical significance. *P<0.05, **P<0.01, ***P<0.001. To analyze whether Sphk2 inhibitor is effective in expanding hematopoietic stem cell number and enhance their function. Twenty 8-week-old C57 mice (purchased from Laboratory Animal Center, Sun Yat-sen University) were selected for the experiment. The mice were divided evenly into an inhibitor treatment group and a control group. The mice were injected intraperitoneally with ABC294640 (inhibitor treatment group) or solvent control (1:1 physiological saline: PEG400) solution (control group) every other day. 14 days after the first injection, bone marrow cells were harvested from both groups, and were analyzed for the number of hematopoietic stem cells, with methods and analysis as described in Example 1. To evaluate the hematopoietic function of the hematopoietic stem cells, 2×10^5 bone marrow cells from Sphk2 inhibitor or solvent control treated mice were transplanted into irradiated recipients (as described in Example 13). Peripheral blood was collected from the tail vein every 4 weeks after transplantation. The hematopoietic repopulation function was examined from donor-derived blood cells. The Sphk2 inhibitor was prepared as described in Example 4. Briefly, ABC294640 was purchased from Selleck and dissolved in dimethyl sulfoxide (DMSO), which was finally diluted with a mixture solution of polyethylene glycol 400 (PEG400) and physiological saline (1:1) to be administered at a dose of 10 mg/kg. T-test analysis was carried out using Graphpad6.0, and differences were considered statistically significant when *P<0.05, **P<0.01 and ***P<0.001.

O=C(NCc1ccncc1)C12CC3CC(C1)CC(c1ccc(Cl)cc1)(C3)C2 [ABC294640, 3-(4-chloro-phenyl)-adamantane-1-carboxylic acid (pyridin-4-ylmethyl)-amide]
number of white blood cells from the peripheral blood (white blood cells [1]): significantly increased
number of hematopoietic stem cells in bone marrow (hematopoietic stem cells [2]): increased remarkably
number of platelets in the peripheral blood (platelets): significantly increased
number of white blood cells from the peripheral blood (white blood cells [3]): significantly increased
increase of number of hematopoietic stem cells (hematopoietic stem cells [4]; ABC294640 10 mg/kg i.p. every other day, 14 days after first injection, FIG. 14 panel b): 1.7 fold
increase of CD150 HSCs (expanded HSC pool) (hematopoietic stem cells [4]; FIG. 27): 1.7 fold
increase of LT-HSCs (expanded HSC pool) (hematopoietic stem cells [4]; FIG. 27): 2.1 fold
quiescence of HSCs (cell cycle analysis of CD150 HSCs) (hematopoietic stem cells [4]; FIG. 27): increased quiescence
